The source of these data is US6177572A, “Solid and liquid-phase synthesis of benzoxazoles and benzothiazoles and their use” (Sepracor, Inc., priority 1997, dated 2001).

Assay type in all cases: cell-based
Assay [1] deals with Candida. Kind of assay: Modified Kirby-Bauer Assay Against Candida. Particulars: 10 mg/ml. The method, then: (§1) Modified Kirby-Bauer Susceptibility Testing (see, e.g., Finegold et al. "Diagnostic Microbiology," 6th Ed., C. V. Mosby Co., St. Louis, (1982), pp. 542-543: Microorganisms are grown on a solid medium in order to ensure a pure homogeneous culture. This requires an 18-24 hour grow out. Once purity is determined, the microorganism is sub-cultured by picking off one to three colonies from the solid medium using a sterile loop, and placing the colonies onto an appropriate liquid medium (e.g., Brain Heart Infusion for bacteria and Sabouraud's Dextrose for yeast or fungi). The microorganisms are then allowed to grow for 4-6 hours at the appropriate atmospheric and temperature conditions. After the 4-6 hour grow out, the microorganisms are ready for testing.
(§2) The MacFarland standard is prepared by mixing Barium Chloride with sulfuric acid in the appropriate proportions, as is known in the art (see, e.g. Finegold et al., supra). Once the cultures have been standardized, sterile cotton swabs are used to apply the microorganisms to agar plates for testing. The plates are swabbed in three different directions, rotating the plates 60 each time. After the microorganisms have been applied to the plate, 10-12 paper disks (1/4") in diameter are spaced evenly around the plate. […] The zones are measured in millimeters and recorded. […]

The test system of assay [2] is Saccharomyces. Put plainly: Modified Kirby-Bauer Assay Against Saccharomyces. Particulars: 10 mg/ml. The method, then: as §1, §2
Assay [3] concerns E. Coli. Put plainly: Modified Kirby-Bauer Assay Against E. Coli. Particulars: Escherichia coli, control, 10 mg/ml, read-out: zone size of inhibited microbial growth (diameter), control. The method, then: as §1, §2
Assay [4] concerns Staphylococcus aureus. Kind of assay: Modified Kirby-Bauer Assay Against Staphylococcus aureus. Particulars: read-out: zone size of inhibited microbial growth (diameter), control. The procedure:
as §1, §2

Each structure is given as a SMILES string.

As to `CCC(C)n1ncn(-c2ccc(N3CCN(c4ccc(OCC5COC(Cn6cncn6)(c6ccc(Cl)cc6Cl)O5)cc4)CC3)cc2)c1=O` (single isomer, unassigned; (-)) [(-) cis itraconazole], the “zone size of inhibited microbial growth (diameter), control” value in assay [1] and in assay [2] was 15 mm in each case.
With `CN(C)C1C(O)=C(C(N)=O)C(=O)C2(O)C(O)=C3C(=O)c4c(O)cccc4C(C)(O)C3CC12` (stereo not drawn) [Tetracylcine], the results for the zone of inhibition at 10000 µg/mL in assay [3] and in assay [4] were 22 mm and 25 mm, respectively.
In the case of `CCC(C)n1ncn(-c2ccc(N3CCN(c4ccc(OCC5COC(Cn6cncn6)(c6ccc(Cl)cc6Cl)O5)cc4)CC3)cc2)c1=O` (single isomer, unassigned; (+)) [(+) cis-itraconazole], the “zone size of inhibited microbial growth (diameter), control” value in assay [1] and in assay [2] was 12 mm in each case.
